Data published in PMC6162346, “The MALDI-TOF E2/E3 Ligase Assay as Universal Tool for Drug Discovery in the Ubiquitin Pathway” (Cell Chemical Biology, 2018).
pIC50: −log10 of the molar value. “And” between values parts separate entries of the source, which are not always exact repeats. Equal entries are not always repeated. “Also recorded” adds a separate entry of the source. Where two headings read alike, the source gives them in different places.

Key:
HOIP [1] = molecular target: T1, HOIP (Homo sapiens, UniProt Q96EP0); test: MALDI-TOF E2/E3 ligase assay (mono-ubiquitin consumption), UBE1/UBE2L3/HOIP; assay type: biochemical; conditions: for remaining activity at 10 µM: read-out: Residual Activity (%), UBE1/UBE2L3/HOIP
T1 construct: HOIP (697-1072) DU22629; GST (cleaved yes); host or cells: E. coli BL21
T1 sequence (Q96EP0 697-1072): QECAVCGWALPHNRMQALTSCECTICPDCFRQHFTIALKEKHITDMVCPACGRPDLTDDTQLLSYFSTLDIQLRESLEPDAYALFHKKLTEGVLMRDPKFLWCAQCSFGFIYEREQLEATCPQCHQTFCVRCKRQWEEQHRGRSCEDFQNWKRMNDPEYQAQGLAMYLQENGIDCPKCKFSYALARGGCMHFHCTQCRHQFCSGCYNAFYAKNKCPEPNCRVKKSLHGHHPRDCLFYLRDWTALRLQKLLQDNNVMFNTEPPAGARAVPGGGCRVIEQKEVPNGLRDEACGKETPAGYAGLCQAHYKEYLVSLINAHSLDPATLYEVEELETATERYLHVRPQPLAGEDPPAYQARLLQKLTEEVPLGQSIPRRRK

MDM2 = MDM2 (Homo sapiens, UniProt Q00987); test: MALDI-TOF E2/E3 ligase assay (mono-ubiquitin consumption), UBE1/UBE2D1/MDM2; assay type: biochemical; conditions: for Inhibition effect on MDM2 with β-mercaptoethanol (BME) present: initial presence of BME in the MDM2 preparation; for remaining activity at 10 µM: read-out: Residual Activity (%), UBE1/UBE2D1/MDM2
Chain of MDM2 (Q00987 whole entry): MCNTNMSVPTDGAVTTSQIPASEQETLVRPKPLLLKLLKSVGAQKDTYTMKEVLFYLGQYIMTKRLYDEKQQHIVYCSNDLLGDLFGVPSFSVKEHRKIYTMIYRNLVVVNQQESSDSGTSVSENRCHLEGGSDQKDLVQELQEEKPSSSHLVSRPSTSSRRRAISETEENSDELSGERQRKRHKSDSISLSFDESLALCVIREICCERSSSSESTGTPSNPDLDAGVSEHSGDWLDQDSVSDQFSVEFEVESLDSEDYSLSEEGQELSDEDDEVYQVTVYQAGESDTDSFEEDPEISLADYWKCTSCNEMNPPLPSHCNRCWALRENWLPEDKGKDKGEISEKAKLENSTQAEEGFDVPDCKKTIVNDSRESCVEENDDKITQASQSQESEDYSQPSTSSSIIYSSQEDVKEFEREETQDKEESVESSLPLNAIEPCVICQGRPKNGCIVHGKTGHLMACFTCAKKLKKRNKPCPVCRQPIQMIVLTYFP

ITCH [2] = molecular target: T2, ITCH (Homo sapiens, UniProt Q96J02); test: MALDI-TOF E2/E3 ligase assay (mono-ubiquitin consumption), UBE1/UBE2D1/ITCH; assay type: biochemical; conditions: for remaining activity at 10 µM: read-out: Residual Activity (%), UBE1/UBE2D1/ITCH
T2 construct: ITCH Q96J02 - GST full length; host or cells: E. coli BL21
T2 sequence (Q96J02 whole entry): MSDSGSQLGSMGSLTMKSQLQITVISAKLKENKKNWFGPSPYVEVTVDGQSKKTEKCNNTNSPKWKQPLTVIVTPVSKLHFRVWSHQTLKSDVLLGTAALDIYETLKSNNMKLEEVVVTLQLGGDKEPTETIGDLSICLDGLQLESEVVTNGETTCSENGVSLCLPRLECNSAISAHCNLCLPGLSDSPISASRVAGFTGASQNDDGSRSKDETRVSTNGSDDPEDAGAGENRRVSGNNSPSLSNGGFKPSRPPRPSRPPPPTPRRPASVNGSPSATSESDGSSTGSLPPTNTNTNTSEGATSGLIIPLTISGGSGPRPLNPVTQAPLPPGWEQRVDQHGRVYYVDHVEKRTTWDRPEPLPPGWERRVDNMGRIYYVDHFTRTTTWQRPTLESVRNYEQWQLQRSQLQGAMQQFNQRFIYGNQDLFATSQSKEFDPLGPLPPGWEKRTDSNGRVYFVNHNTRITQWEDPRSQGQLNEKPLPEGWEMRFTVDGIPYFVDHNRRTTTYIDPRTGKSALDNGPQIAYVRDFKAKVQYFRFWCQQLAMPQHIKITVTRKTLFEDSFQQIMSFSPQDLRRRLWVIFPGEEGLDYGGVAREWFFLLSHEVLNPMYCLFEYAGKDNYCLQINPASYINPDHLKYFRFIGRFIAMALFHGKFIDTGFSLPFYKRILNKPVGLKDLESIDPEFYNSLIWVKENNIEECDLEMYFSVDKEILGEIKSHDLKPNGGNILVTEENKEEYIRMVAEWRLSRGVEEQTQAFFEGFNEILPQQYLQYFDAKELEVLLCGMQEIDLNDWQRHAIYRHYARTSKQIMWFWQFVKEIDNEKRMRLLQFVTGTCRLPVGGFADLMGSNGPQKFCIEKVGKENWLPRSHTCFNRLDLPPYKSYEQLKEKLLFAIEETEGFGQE

UBE2L3 = molecular target: T3, UBE2L3 (Homo sapiens, UniProt P68036); test: MALDI-TOF MS of intact E2 protein incubated with inhibitor (covalent modification); assay type: binding; conditions: UBE2L3 3 µM, inhibitor 100 µM, 30 min, room temperature
T3 construct: UBE2L3 P68036 UbcH7 - full length; 6His (cleaved yes); host or cells: E. coli BL21 DE3 codon plus
T3 sequence (P68036 whole entry): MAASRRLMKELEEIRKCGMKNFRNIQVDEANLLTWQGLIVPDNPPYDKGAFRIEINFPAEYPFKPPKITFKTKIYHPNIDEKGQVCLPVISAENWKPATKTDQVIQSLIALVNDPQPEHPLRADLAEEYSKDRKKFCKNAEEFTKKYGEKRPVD

ITCH [3] = tested on: ITCH; parameters: method as in Rossi et al., 2014; conditions: irreversible block; ref Rossi et al., 2014; cited from earlier work
HOIP [4] = molecular target: T1, HOIP; assay type: biochemical
[5] = UBE1/UBE2L3/HOIP, compounds pre-incubated 30 min, then ubiquitin 30 or 40 min, four-parameter fit, read-out: IC50 against HOIP
[6] = UBE1/UBE2D1/MDM2, compounds pre-incubated 30 min, then ubiquitin 30 or 40 min, four-parameter fit, read-out: IC50 against MDM2
[7] = UBE1/UBE2D1/ITCH, compounds pre-incubated 30 min, then ubiquitin 30 or 40 min, four-parameter fit, read-out: IC50 against ITCH
[8] = HTS single point, 10 μM compound

COc1ccc(CCN)cc1OC [2-(3,4-dimethoxyphenyl) ethanamine]
remaining activity at 10 µM (HOIP [1]): 68.2%

Cc1ccc(S(=O)(=O)/C=C/C#N)cc1 [BAY117082]
Hill Slope Values for calculated IC50s, HOIP (HOIP [1]; Table S4): 2.48 | pIC50 (HOIP [1]; [5]): 5.54 | Hill Slope Values for calculated IC50s, MDM2 (MDM2; Table S4): 3.5 | pIC50 (MDM2; [6]): 5.62 | Inhibition effect on MDM2 with β-mercaptoethanol (BME) present (MDM2): suppressed | Hill Slope Values for calculated IC50s, ITCH (ITCH [2]; Table S4): 1.23 | pIC50 (ITCH [2]; [7]): 4.59 | Covalent modification of E2 enzyme UBE2L3 (in words) (UBE2L3): covalently modified E2 enzymes | Mass shift of UBE2L3 after incubation with inhibitor (UBE2L3): 153 Da

CN(C)CCCN1c2ccccc2CCc2ccc(Cl)cc21 [Clomipramine]
Inhibition of HOIP at 10 μM (in words) (HOIP [1]; 10 μM): did not inhibit | Inhibition of MDM2 at 10 μM (in words) (MDM2): did not inhibit | Concentration achieving complete inhibition of ITCH ubiquitin transthiolation (ITCH [3]): 0.8 mM | Inhibition of ITCH at 10 μM (in words) (ITCH [2]): did not inhibit | pIC50 (ITCH [2]; dose-response curve, final concentrations between 2mM and 7 µM, read-out: IC50 against ITCH): 3.30 and ~3.30

CN1C(=O)[C@]23CC4=CC=C[C@H](O)[C@H]4N2C(=O)[C@@]1(CO)SS3 [Gliotoxin]
Hill Slope Values for calculated IC50s, HOIP (HOIP [1]): 2.01 | pIC50 (HOIP [1]): 5.55 | Hill Slope Values for calculated IC50s, MDM2 (MDM2): 2.18 | pIC50 (MDM2): 6.30 | Hill Slope Values for calculated IC50s, ITCH (ITCH [2]): 5.12 | pIC50 (ITCH [2]): 4.52

COc1ccc(C2=N[C@@H](c3ccc(Cl)cc3)[C@@H](c3ccc(Cl)cc3)N2C(=O)N2CCNC(=O)C2)c(OC(C)C)c1 [Nutlin3A, nutlin-3A]
Inhibitory activity toward HOIP in IC50 curves (in words) (HOIP [1]; 0–100 μM): did not show any inhibitory activity | IC50 against HOIP (HOIP [1]; UBE1/UBE2L3/HOIP, compounds pre-incubated 30 min, then ubiquitin 30 or 40 min, four-parameter fit): ambiguous | Inhibitory activity toward ITCH in IC50 curves (in words) (ITCH [2]; 0–100 μM): did not show any inhibitory activity | IC50 against ITCH (ITCH [2]; UBE1/UBE2D1/ITCH, compounds pre-incubated 30 min, then ubiquitin 30 or 40 min, four-parameter fit): ambiguous

N#CSc1cc(SC#N)c(N)nc1N [PR619]
Hill Slope Values for calculated IC50s, HOIP (HOIP [1]; Table S4): 7.8 | pIC50 (HOIP [1]; [5]): 6.70 | Hill Slope Values for calculated IC50s, MDM2 (MDM2; Table S4): 1.89 | pIC50 (MDM2; [6]): 6.22 | Hill Slope Values for calculated IC50s, ITCH (ITCH [2]; Table S4): 3.14 | pIC50 (ITCH [2]; [7]): 6.40 | Covalent modification of E2 enzyme UBE2L3 (in words) (UBE2L3): extensively modified UBE2L3; also recorded: covalently modified E2 enzymes

CCOC(=O)c1ccc(N2NC(=O)/C(=C/c3ccc([N+](=O)[O-])o3)C2=O)cc1 [PYR41]
Hill Slope Values for calculated IC50s, HOIP (HOIP [1]; Table S4): 3.73 | pIC50 (HOIP [1]; [5]): 5.24 | Hill Slope Values for calculated IC50s, MDM2 (MDM2; Table S4): 2.23 | pIC50 (MDM2; [6]): 5.51 | Inhibition effect on MDM2 with β-mercaptoethanol (BME) present (MDM2): suppressed | Hill Slope Values for calculated IC50s, ITCH (ITCH [2]; Table S4): 1.22 | pIC50 (ITCH [2]; [7]): 4.95

Cc1[nH]cnc1CN1CCc2c(c3ccccc3n2C)C1=O [alosetron]
remaining activity at 10 µM (ITCH [2]; [8]): 58.2%

C[C@H]1[C@H](NC(=O)/C(=N\OC(C)(C)C(=O)O)c2csc(N)n2)C(=O)N1S(=O)(=O)O [aztreonam]
remaining activity at 10 µM (MDM2; [8]): 56.7%

Cn1c(CCCC(=O)O)nc2cc(N(CCCl)CCCl)ccc21 [bendamustine]
pIC50 (HOIP [1]; IC50 against HOIP, UBE1/UBE2L3/HOIP, compounds pre-incubated 30 min, then ubiquitin 30 or 40 min, four-parameter fit): 5.19 and 5.20 | Fold higher activity against HOIP than against ITCH (HOIP [1]; from IC50 values): 12 fold | Fold higher activity against HOIP than against MDM2 (HOIP [1]; from IC50 values): 18 fold | remaining activity at 10 µM (HOIP [1]): 6.3% | Inhibition of HOIP when paired with UBE2D1 (in words) (HOIP [4]): inhibits HOIP independently from the E2 in use; also recorded: retained its inhibition power | pIC50 (MDM2): 3.94 | Inhibition of MDM2 at 10 μM (in words) (MDM2): did not significantly affect | pIC50 (ITCH [2]): 4.11 | Inhibition of ITCH at 10 μM (in words) (ITCH [2]): did not significantly affect

CCCCN1CCCCC1C(=O)Nc1c(C)cccc1C (centres unmarked) [bupivacaine]
remaining activity at 10 µM (HOIP [1]; [8]): 66.2%

CCOc1nc2cccc(C(=O)OC(C)OC(=O)OC3CCCCC3)c2n1Cc1ccc(-c2ccccc2-c2nnn[nH]2)cc1 (centres unmarked) [candesartan cilexetil]
inhibition at 10 µM (MDM2; [8]): > 50% | remaining activity at 10 µM (MDM2; [8]): 48.6% | pIC50 (MDM2; [6]): 5.06

N[C@@H](C(=O)N[C@@H]1C(=O)N2C(C(=O)O)=C(CSc3c[nH]nn3)CS[C@H]12)c1ccc(O)cc1 [cefatrizine]
remaining activity at 10 µM (HOIP [1]; [8]): 49%

O=c1c2ccccc2[se]n1-c1ccccc1 [ebselen]
remaining activity at 10 µM (HOIP [1]; [8]): 36.2%

C=C(CC)C(=O)c1ccc(OCC(=O)O)c(Cl)c1Cl [ethacrynic acid]
remaining activity at 10 µM (MDM2; [8]): 53.9% | remaining activity at 10 µM (ITCH [2]; [8]): 29.5%

OC(Cn1cncn1)(Cn1cncn1)c1ccc(F)cc1F [fluconazole]
remaining activity at 10 µM (HOIP [1]; [8]): 46.4%

Oc1c(Cl)cc(Cl)c(Cl)c1Cc1c(O)c(Cl)cc(Cl)c1Cl [hexachlorophene]
remaining activity at 10 µM (MDM2): 52.4% | remaining activity at 10 µM (ITCH [2]): 22.2%

O=C(NCCN1CCOCC1)c1ccc(Cl)cc1 [moclobemide]
remaining activity at 10 µM (HOIP [1]; [8]): 25.9%

Cc1ccnc2c1NC(=O)c1cccnc1N2C1CC1 [nevirapine]
remaining activity at 10 µM (HOIP [1]; [8]): 54.8%

NC(=O)c1cnccn1 [pyrazinamide]
remaining activity at 10 µM (HOIP [1]; [8]): 49.3%

Oc1ccc(/C=C/c2cc(O)cc(O)c2)cc1 [resveratrol]
remaining activity at 10 µM (HOIP [1]; [8]): 62.2%
